Laboratory results as given in patent US5110797A, “Peptide compound and a pharmaceutically acceptable salt thereof” (Nippon Zoki Pharmaceutical Co., Ltd., priority 1985, dated 1992).

Tests used:
[1] = tested on: Wistar-strain rats (hippocampus EEG); test: Neurotropic effect: EEG activity after injection into the hippocampus of freely moving rats; assay type: in vivo, rat; conditions: 100 ng to 10 μg in 2 μl saline injected unilaterally into the hippocampus
Description: (I) A neurotropic effect of the peptide compounds of the present invention was examined by the method of Maria-S. Oitzl and J. P. Huston [Brain research, 308, 33-42 (1984)].
Wistar-strain rats were implanted with a set of electrodes for recording EEG under anesthesia with pentobarbital (50 mg/kg, i.p.). The electrodes were bilaterally implanted into the hippocampus (Bregma -2.7 mm, Lateral 2.5 mm, Depth 2.8 mm) by reference to THE RAT BRAIN IN STEREOTAXIC COODINATES (George Paxion & Charles Watson, Academic press). Chemitorode, a injection guide cannula uniting with electrode for recording, was implanted in the temporoparietal left hole. The test drugs were unilaterally injected into the hippocampus of freely moving rats to examine their effect on EEG activity.
The rats were kept for about a week for a cure, and then used for the experiments. After the EEG activity was recorded for dozens of minutes in a normal state, 100 ng to 10 μg of the test drug dissolved in 2 μl of saline was injected into the hippocampus through the injection guide cannula. Only saline was used as a control. Immediately after the administration it began to record the EEG activity.

[2] = tested on: ddY-strain male mice; test: Analgesic effect, modified Randall-Selitto's test (Tale pressure method); assay type: in vivo; conditions: 0.1 μmole/mouse, intracisternal injection, test at 5 min after injection, groups of 10 mice; control 1.17 ± 0.12
Description: Groups of 10 ddY-strain male mice weighing 24-30 g were used for measurement of analgesic effect of the peptide compounds of the present invention by modified Randall-Selitto's test (Tale pressure method). Analgesic test was performed at 5 min after intracisternal injection of the test drugs.

## NCCCC(=O)O [GABA, γ-Aminobutyric acid]
[1]
  time after administration at which characteristic EEG spikes appeared: a few minutes
  time after administration until which the EEG spikes continued: about 25 min
[2]
  Pain Index: 1.65 ± 0.13
